Laboratory results from US9029391B2 (priority 2011, dated 2015).

System: HIV
Test: MT4 Assay (anti-HIV activity)
Type: cell-based
Conditions: Human immunodeficiency virus 1, 96 h, read-out: HIV MT4 Assay IC50, HTLV-1 transformed cell line MT-4, cell titer glo, 10 point dose response curve
In short: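 IC50 values were fitted to 10-point dose-response series (3-4-fold dilutions, range >1000-fold), normalized to no-compound control. CellTiter-Glo read-out was taken after 96 hours in HTLV-1-transformed MT-4 cells. Cytotoxicity was measured in parallel under identical conditions.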

Structure (SMILES) | IC50 [µM]
Cn1c(C(OC(C)(C)C)C(=O)O)c(-c2ccc3c(c2Cl)CCCO3)c2ccccc2c1=O (centres unmarked) [Example 21, 2-(tert-butoxy)-2-[4-(5-chloro-3,4-dihydro-2H-1-benzopyran-6-yl)-2-methyl-1-oxo-1,2-dihydroisoquinolin-3-yl]acetic acid] | 3.5
Cn1c(C(OC(C)(C)C)C(=O)O)c(-c2ccc(OC3CCCCC3)cc2)c2ccccc2c1=O (centres unmarked) [Example 24, 2-(tert-butoxy)-2-{4-[4-(cyclohexyloxy)phenyl]-2-methyl-1-oxo-1,2-dihydroisoquinolin-3-yl}acetic acid] | 25
Cn1c(C(OC(C)(C)C)C(=O)O)c(-c2ccc3c(c2)CCCO3)c2cc(F)ccc2c1=O (centres unmarked) [Example 25, 2-(tert-butoxy)-2-[4-(3,4-dihydro-2H-1-benzopyran-6-yl)-6-fluoro-2-methyl-1-oxo-1,2-dihydroisoquinolin-3-yl]acetic acid] | 0.67
Cn1c(C(OC(C)(C)C)C(=O)O)c(-c2ccc3c(c2)CCCO3)c2cc(Cl)ccc2c1=O (centres unmarked) [Example 26, 2-(tert-butoxy)-2-[6-chloro-4-(3,4-dihydro-2H-1-benzopyran-6-yl)-2-methyl-1-oxo-1,2-dihydroisoquinolin-3-yl]acetic acid] | 1.9
COc1cc(-c2c(C(OC(C)(C)C)C(=O)O)n(C)c(=O)c3ccccc23)cc(OC)c1OC (centres unmarked) [Example 27, 2-(tert-butoxy)-2-[2-methyl-1-oxo-4-(3,4,5-trimethoxyphenyl)-1,2-dihydroisoquinolin-3-yl]acetic acid] | 50
CCn1c(C(OC(C)(C)C)C(=O)O)c(-c2ccc(C)c(C)c2)c2ccccc2c1=O (centres unmarked) [Example 28, 2-(tert-butoxy)-2-[4-(3,4-dimethylphenyl)-2-ethyl-1-oxo-1,2-dihydroisoquinolin-3-yl]acetic acid] | 6.13
Cn1c(C(OC(C)(C)C)C(=O)O)c(-c2cccc3ccccc23)c2ccccc2c1=O (centres unmarked) [Example 29, 2-(tert-butoxy)-2-[2-methyl-4-(naphthalen-1-yl)-1-oxo-1,2-dihydroisoquinolin-3-yl]acetic acid] | 8.3
CC(C)(C)OC(C(=O)O)c1c(-c2ccc3c(c2)CCCO3)c2ccccc2c(=O)n1C1CC1 (centres unmarked) [Example 30, 2-(tert-butoxy)-2-[2-cyclopropyl-4-(3,4-dihydro-2H-1-benzopyran-6-yl)-1-oxo-1,2-dihydroisoquinolin-3-yl]acetic acid] | 38.3
COc1ccc(-c2c(C(OC(C)(C)C)C(=O)O)n(C)c(=O)c3ccccc23)c(C)c1 (centres unmarked) [Example 31, 2-(tert-butoxy)-2-[4-(4-methoxy-2-methylphenyl)-2-methyl-1-oxo-1,2-dihydroisoquinolin-3-yl]acetic acid] | 1.72
COc1ccccc1-c1c(C(OC(C)(C)C)C(=O)O)n(C)c(=O)c2ccccc12 (centres unmarked) [Example 33, 2-(tert-butoxy)-2-[4-(2-methoxyphenyl)-2-methyl-1-oxo-1,2-dihydroisoquinolin-3-yl]acetic acid] | 21.7
Cc1ccc(-c2c(C(OC(C)(C)C)C(=O)O)n(C)c(=O)c3ccccc23)c(C)c1 (centres unmarked) [Example 34, 2-(tert-butoxy)-2-[4-(2,4-dimethylphenyl)-2-methyl-1-oxo-1,2-dihydroisoquinolin-3-yl]acetic acid] | 0.41
Cn1c(C(OC(C)(C)C)C(=O)O)c(-c2ccc3c(c2)CCCO3)c2cccc(F)c2c1=O (centres unmarked) [Example 35, 2-(tert-butoxy)-2-[4-(3,4-dihydro-2H-1-benzopyran-6-yl)-8-fluoro-2-methyl-1-oxo-1,2-dihydroisoquinolin-3-yl]acetic acid] | 1.89
Cn1c(C(OC(C)(C)C)C(=O)O)c(-c2ccc3c(c2)OCCC3)c2ccccc2c1=O (centres unmarked) [Example 36, 2-(tert-butoxy)-2-[4-(3,4-dihydro-2H-1-benzopyran-7-yl)-2-methyl-1-oxo-1,2-dihydroisoquinolin-3-yl]acetic acid] | 15
Cn1c(C(OC(C)(C)C)C(=O)O)c(-c2ccc3c(c2Cl)OCCC3)c2ccccc2c1=O (centres unmarked) [Example 37, 2-(tert-butoxy)-2-[4-(8-chloro-3,4-dihydro-2H-1-benzopyran-7-yl)-2-methyl-1-oxo-1,2-dihydroisoquinolin-3-yl]acetic acid] | 33.2
Cn1c(C(OC(C)(C)C)C(=O)O)c(-c2ccc(F)c(F)c2)c2ccccc2c1=O (centres unmarked) [Example 38, 2-(tert-butoxy)-2-[4-(3,4-difluorophenyl)-2-methyl-1-oxo-1,2-dihydroisoquinolin-3-yl]acetic acid] | 2.41
Cn1c(C(OC(C)(C)C)C(=O)O)c(-c2ccc3c(c2)CCCO3)c2ccccc2c1=O (centres unmarked) [Example 39, 2-(tert-butoxy)-2-[4-(3,4-dihydro-2H-1-benzopyran-6-yl)-2-methyl-1-oxo-1,2-dihydroisoquinolin-3-yl]acetic acid] | 1.88
Cn1c(C(OC(C)(C)C)C(=O)O)c(-c2cccc(F)c2)c2ccccc2c1=O (centres unmarked) [Example 40, 2-(tert-butoxy)-2-[4-(3-fluorophenyl)-2-methyl-1-oxo-1,2-dihydroisoquinolin-3-yl]acetic acid] | 2.18
Cn1c(C(OC(C)(C)C)C(=O)O)c(-c2cccnc2)c2ccccc2c1=O (centres unmarked) [Example 41, 2-(tert-butoxy)-2-[2-methyl-1-oxo-4-(pyridin-3-yl)-1,2-dihydroisoquinolin-3-yl]acetic acid] | 50

Structure (SMILES) | IC50 [µM]
CCOc1ccc(-c2c(C(OC(C)(C)C)C(=O)O)n(C)c(=O)c3ccccc23)cc1 (centres unmarked) [Example 42, 2-(tert-butoxy)-2-[4-(4-ethoxyphenyl)-2-methyl-1-oxo-1,2-dihydroisoquinolin-3-yl]acetic acid] | 33.3
Cc1cc(C)c(-c2c(C(OC(C)(C)C)C(=O)O)n(C)c(=O)c3ccccc23)cc1C (centres unmarked) [Example 43, 2-(tert-butoxy)-2-[2-methyl-1-oxo-4-(2,4,5-trimethylphenyl)-1,2-dihydroisoquinolin-3-yl]acetic acid] | 0.37
CCCOc1ccc(-c2c(C(OC(C)(C)C)C(=O)O)n(C)c(=O)c3ccccc23)cc1 (centres unmarked) [Example 44, 2-(tert-butoxy)-2-[2-methyl-1-oxo-4-(4-propoxyphenyl)-1,2-dihydroisoquinolin-3-yl]acetic acid] | 38.9
CC(C)Oc1ccc(-c2c(C(OC(C)(C)C)C(=O)O)n(C)c(=O)c3ccccc23)cc1 (centres unmarked) [Example 45, 2-(tert-butoxy)-2-{2-methyl-1-oxo-4-[4-(propan-2-yloxy)phenyl]-1,2-dihydroisoquinolin-3-yl}acetic acid] | 50
Cn1c(C(OC(C)(C)C)C(=O)O)c(-c2ccc(F)cc2F)c2ccccc2c1=O (centres unmarked) [Example 46, 2-(tert-butoxy)-2-[4-(2,4-difluorophenyl)-2-methyl-1-oxo-1,2-dihydroisoquinolin-3-yl]acetic acid] | 1.57
CCc1ccc(-c2c(C(OC(C)(C)C)C(=O)O)n(C)c(=O)c3ccccc23)cc1 (centres unmarked) [Example 47, 2-(tert-butoxy)-2-[4-(4-ethylphenyl)-2-methyl-1-oxo-1,2-dihydroisoquinolin-3-yl]acetic acid] | 1.85
Cn1c(C(OC(C)(C)C)C(=O)O)c(-c2ccncc2)c2ccccc2c1=O (centres unmarked) [Example 48, 2-(tert-butoxy)-2-[2-methyl-1-oxo-4-(pyridin-4-yl)-1,2-dihydroisoquinolin-3-yl]acetic acid] | 50
COCc1ccc(-c2c(C(OC(C)(C)C)C(=O)O)n(C)c(=O)c3ccccc23)cc1 (centres unmarked) [Example 49, 2-(tert-butoxy)-2-{4-[4-(methoxymethyl)phenyl]-2-methyl-1-oxo-1,2-dihydroisoquinolin-3-yl}acetic acid] | 15.6
COc1ccc(-c2c(C(OC(C)(C)C)C(=O)O)n(C)c(=O)c3ccccc23)cc1OC (centres unmarked) [Example 50, 2-(tert-butoxy)-2-[4-(3,4-dimethoxyphenyl)-2-methyl-1-oxo-1,2-dihydroisoquinolin-3-yl]acetic acid] | 25.6
Cn1c(C(OC(C)(C)C)C(=O)O)c(-c2ccc3c(c2)OCO3)c2ccccc2c1=O (centres unmarked) [Example 51, 2-[4-(2H-1,3-benzodioxol-5-yl)-2-methyl-1-oxo-1,2-dihydroisoquinolin-3-yl]-2-(tert-butoxy)acetic acid] | 5.3
COc1cc(-c2c(C(OC(C)(C)C)C(=O)O)n(C)c(=O)c3ccccc23)ccc1C (centres unmarked) [Example 52, 2-(tert-butoxy)-2-[4-(3-methoxy-4-methylphenyl)-2-methyl-1-oxo-1,2-dihydroisoquinolin-3-yl]acetic acid] | 3.12
Cn1c(C(OC(C)(C)C)C(=O)O)c(-c2ccc3c(c2)OCCO3)c2ccccc2c1=O (centres unmarked) [Example 53, 2-(tert-butoxy)-2-[4-(2,3-dihydro-1,4-benzodioxin-6-yl)-2-methyl-1-oxo-1,2-dihydroisoquinolin-3-yl]acetic acid] | 2.46
COc1ccc(-c2c(C(OC(C)(C)C)C(=O)O)n(C)c(=O)c3ccccc23)cc1C (centres unmarked) [Example 54, 2-(tert-butoxy)-2-[4-(4-methoxy-3-methylphenyl)-2-methyl-1-oxo-1,2-dihydroisoquinolin-3-yl]acetic acid] | 12.3
Cc1ccc2c(=O)n(C)c(C(OC(C)(C)C)C(=O)O)c(-c3ccc(C)c(C)c3)c2c1 (centres unmarked) [Example 55, 2-(tert-butoxy)-2-[4-(3,4-dimethylphenyl)-2,6-dimethyl-1-oxo-1,2-dihydroisoquinolin-3-yl]acetic acid] | 2.56
Cc1ccc(-c2c(C(OC(C)(C)C)C(=O)O)n(C)c(=O)c3ccc(F)cc23)cc1C (centres unmarked) [Example 56, 2-(tert-butoxy)-2-[4-(3,4-dimethylphenyl)-6-fluoro-2-methyl-1-oxo-1,2-dihydroisoquinolin-3-yl]acetic acid] | 1.68
Cn1c(C(OC(C)(C)C)C(=O)O)c(-c2ccc3c(c2)CCCO3)c2ccc(F)cc2c1=O (centres unmarked) [Example 57, 2-(tert-butoxy)-2-[4-(3,4-dihydro-2H-1-benzopyran-6-yl)-7-fluoro-2-methyl-1-oxo-1,2-dihydroisoquinolin-3-yl]acetic acid] | 1.65
Cc1ccc2c(-c3ccc4c(c3)CCCO4)c(C(OC(C)(C)C)C(=O)O)n(C)c(=O)c2c1 (centres unmarked) [Example 58, 2-(tert-butoxy)-2-[4-(3,4-dihydro-2H-1-benzopyran-6-yl)-2,7-dimethyl-1-oxo-1,2-dihydroisoquinolin-3-yl]acetic acid] | 0.37
